Like-named read-outs stand apart in the source and are kept apart here.
Tests used:
Human Lung Cancer (H460) = experiment: Anticancer activity of xenorxide derivatives (Example 8), H460; assay type: cell-based; conditions: NCI-H460; H460 human lung cancer cells
Description: (§1) Anticancer Activity of Xenorxide Derivatives Against Human Lung Cancer (H460) and Breast Cancer (LCC6)

Breast Cancer (LCC6) = experiment: Anticancer activity of xenorxide derivatives (Example 8), LCC6; assay type: cell-based; conditions: Homo sapiens, LCC-6; LCC6 breast cancer cells
Description: as §1

HT29 = experiment: NCI sulforhodamine B (SRB) anticancer assay, HT29; assay type: cell-based
Description: (§2) The method normally used by the American National Cancer Institute (NCI) for the effectiveness of a compound is based on the LC50. The LC50 is the compound concentration at which half of the cancer cell population is killed. The assay is commonly used by those skilled in the art and are accepted as indicative of anticancer activity in mammals. The test animal cancer cells are available from ATCC, NCI and other organizations. The anticancer activities of compounds of the present invention have been determined in cell cultures of various human cancer cells (see table below) using the standard NCI method with slight modifications. The specifications of the procedure was described by Skehan et al. (1990). Briefly, cancer cells were grown in RPMI-1640 medium with glutamine and 10% fetal calf serum, and were harvested from exponential-phase maintenance cultures. The harvested cells were counted and dispensed into replicate 96-well culture plates in 180 μl volumes for each well with a cell density of up to 2,500 cells/well. The cells were allowed to settle for about 4 hours at 37° C. Then 20 μl of medium containing the test compound was added into each well, resulting in a suitable final test compound concentration. The test plates were then incubated at 37° C. The test was terminated after incubation by adding to each well 50 1 of cold 50% trichloroacetic acid. The cells were fixed for an hour at 4° C. and then washed five times with tap water. The washed plates were air-dried and stained for 30 minutes with 0.4% (wt/vol) sulforhodamine B (SRB) which was dissolved in 1% acetic acid. At the end of the staining period, the SRB was removed and plates were quickly rinsed five times with 1% acetic acid. After being rinsed, the plates were air-dried and 100 μl of 10 mM tris base (pH 10.5) were added to each well to dissolve the dye bound to the cells. The plates were placed on a gyratory shaker and shaken (100 rpm) for 10 minutes. Finally, the plates were read in a microtiter plate reader at 570 nm.

MCF-7 = experiment: NCI sulforhodamine B (SRB) anticancer assay, MCF-7; assay type: cell-based
Description: as §2

Hela = experiment: NCI sulforhodamine B (SRB) anticancer assay, Hela; assay type: cell-based
Description: as §2

SF-295 (CNS cancer) = experiment: NCI sulforhodamine B (SRB) anticancer assay, SF-295; assay type: cell-based; conditions: SF-295 (CNS cancer) cells, read-out: LC50 (the source's name)
Description: as §2

UO-31 (Renal cancer) = experiment: NCI sulforhodamine B (SRB) anticancer assay, UO-31; assay type: cell-based; conditions: UO-31 (Renal cancer) cells, read-out: LC50 (the source's name)
Description: as §2

NCI-H460 = experiment: NCI sulforhodamine B (SRB) anticancer assay, NCI-H460; assay type: cell-based; conditions: NCI-H460 cells, read-out: LC50 (the source's name)
Description: as §2

Sk-Mel-28 = experiment: NCI sulforhodamine B (SRB) anticancer assay, Sk-Mel-28; assay type: cell-based; conditions: Sk-Mel-28 cells, read-out: LC50 (the source's name)
Description: as §2

DU-145 (Prostate cancer) = experiment: NCI sulforhodamine B (SRB) anticancer assay, DU-145; assay type: cell-based; conditions: DU-145 (Prostate cancer) cells, read-out: LC50 (the source's name)
Description: as §2

P388 = experiment: NCI sulforhodamine B (SRB) anticancer assay, P388; assay type: cell-based; conditions: P388 cells; read-out: LC50 (the source's name)
Description: as §2, with “The test was terminated after incubation by adding to each well 50 1 of cold 50% trichloroacetic acid. The cells were fixed for an hour at 4° C. and then washed five times with tap water. The washed plates were air-dried and stained for 30 minutes with 0.4% (wt/vol) sulforhodamine B (SRB) which was dissolved in 1% acetic acid. At the end of the staining period, the SRB was removed and plates were quickly rinsed five times with 1% acetic acid. After being rinsed, the plates were air-dried and 100 μl of 10 mM tris base (pH 10.5) were added to each well to dissolve the dye bound to the cells. The plates were placed on a gyratory shaker and shaken (100 rpm) for 10 minutes.” left out

LNCap = experiment: NCI sulforhodamine B (SRB) anticancer assay, LNCap; assay type: cell-based, human; conditions: LNCap cells; read-out: LC50 (the source's name)
Description: as §2, with “The test was terminated after incubation by adding to each well 50 1 of cold 50% trichloroacetic acid. The cells were fixed for an hour at 4° C. and then washed five times with tap water. The washed plates were air-dried and stained for 30 minutes with 0.4% (wt/vol) sulforhodamine B (SRB) which was dissolved in 1% acetic acid. At the end of the staining period, the SRB was removed and plates were quickly rinsed five times with 1% acetic acid. After being rinsed, the plates were air-dried and 100 μl of 10 mM tris base (pH 10.5) were added to each well to dissolve the dye bound to the cells. The plates were placed on a gyratory shaker and shaken (100 rpm) for 10 minutes.” left out

[1] = HT29 cells, concentration at which half of the cancer cell population is killed, read-out: LC50 (the source's name)
[2] = MCF-7 cells, read-out: LC50 (the source's name)
[3] = Hela cells, read-out: LC50 (the source's name)

COc1ccc(N2C(=O)C(NC(=O)C(F)(F)F)=C3C2=CSS3(=O)=O)cc1 [BLI-041-1] showed an IC50 (Human Lung Cancer (H460)) of 2130 nM and an IC50 (Breast Cancer (LCC6)) of 6380 nM.
Work on COc1ccc(N2C(=O)C(NC(C)=O)=C3C2=CSS3(=O)=O)cc1 [BLI-042-1] yielded an IC50 (Human Lung Cancer (H460)) of 230 nM and an IC50 (Breast Cancer (LCC6)) of 1630 nM.
O=C(NC1=C2C(=CSS2(=O)=O)N(Cc2ccccc2)C1=O)c1ccccc1 [CSL-29] gave an IC50 (Human Lung Cancer (H460)) of 1980 nM and an IC50 (Breast Cancer (LCC6)) of 1970 nM.
CC(=O)NC1=C2C(=CSS2(=O)=O)N(c2ccccc2)C1=O [CSL-30] showed an IC50 (Human Lung Cancer (H460)) of 560 nM and an IC50 (Breast Cancer (LCC6)) of 670 nM.
With CCCCCC(=O)Nc1c2[s+]([O-])scc-2n(C)c1=O (stereo not drawn) [XM1] the CC50 (HT29; [1]) was 470 nM, the CC50 (MCF-7; [2]) was 470 nM and the CC50 (Hela; [3]) was 800 nM.
CC(C)CCCC(=O)Nc1c2[s+]([O-])scc-2n(C)c1=O (stereo not drawn) [XM2] showed a CC50 (HT29; [1]) of 110 nM, a CC50 (MCF-7; [2]) of 550 nM and a CC50 (Hela; [3]) of 210 nM.
For CC(=O)Nc1c2sscc-2n(C)c1=O [XN0, 6-(Acetamido)-4-methyl-4,5dihydro-1.2-dithiolo[4,3-b]pyrrol-5-one], the CC50 (HT29; Homo sapiens, HT-29, read-out: LC50) was 130 nM, the CC50 (MCF-7; Homo sapiens, MCF7, read-out: LC50) was 350 nM and the CC50 (Hela; Homo sapiens, HeLa, read-out: LC50) was 310 nM.
Work on CCCCCC(=O)Nc1c2sscc-2n(C)c1=O [XN1, 6-(Hexanamido)-4-methyl-4,5-dihydro-1.2-dithiolo[4,3-b]pyrrol-5-one] yielded a CC50 (HT29; [1]) of 110 nM, a CC50 (MCF-7; [2]) of 560 nM and a CC50 (Hela; [3]) of 460 nM.
For CC(C)CCCC(=O)Nc1c2sscc-2[nH]c1=O [XN3, 6(5′-Methylhexanamido)-4,5-dihydro1,2-dithiolo[4,3-b]pyrrol-5one], the CC50 (SF-295 (CNS cancer); Homo sapiens) was 40 nM, the CC50 (HT29; Homo sapiens, HT-29, HT29 cells, concentration at which half of the cancer cell population is killed, read-out: LC50 (the source's name)) was 110 nM and the CC50 (UO-31 (Renal cancer); Homo sapiens) was 180 nM. For the same molecule, the CC50 (NCI-H460; Homo sapiens) was 30 nM, the CC50 (MCF-7; Homo sapiens, MCF7, MCF-7 cells, read-out: LC50 (the source's name)) was 390 nM and the CC50 (Sk-Mel-28; Homo sapiens) was 240 nM. The CC50 (DU-145 (Prostate cancer); Homo sapiens) was 140 nM and the CC50 (Hela; Homo sapiens, Hela cells, read-out: LC50 (the source's name)) was 320 nM.
Work on CCCCCC(=O)NC1=C2C(=CSS2(=O)=O)N(C)C1=O [XO1] yielded a CC50 (SF-295 (CNS cancer)) of 1580 nM, a CC50 (HT29; [1]) of 220 nM and a CC50 (UO-31 (Renal cancer)) of 1850 nM. For the same molecule, the CC50 (NCI-H460) was 280 nM, the CC50 (P388) was 660 nM and the CC50 (LNCap) was 540 nM. The CC50 (MCF-7; [2]) was 890 nM, the CC50 (Sk-Mel-28) was 190 nM and the CC50 (DU-145 (Prostate cancer)) was 1800 nM. It also gave a CC50 (Hela; [3]) of 160 nM.
For CC(C)CCCC(=O)NC1=C2C(=CSS2(=O)=O)N(C)C1=O [XO2], the CC50 (SF-295 (CNS cancer)) was 2120 nM, the CC50 (HT29; [1]) was 850 nM and the CC50 (UO-31 (Renal cancer)) was 6000 nM. It also gave a CC50 (NCI-H460) of 220 nM, a CC50 (P388) of 280 nM and a CC50 (LNCap) of 190 nM. For the same molecule, the CC50 (MCF-7; [2]) was 950 nM, the CC50 (Sk-Mel-28) was 730 nM and the CC50 (DU-145 (Prostate cancer)) was 1600 nM. For the same molecule, the CC50 (Hela; [3]) was 130 nM.
